{"source": "patent US20030130308A1", "about": "“Drugs for spinal anesthesia” (priority 2001, published 2003)", "key": {"rats [1]": {"system": "rats", "test": "Placing reflex (cumulative placing score) after intrathecal injection", "format": "in vivo", "details": "rat; for Cumulative Placing Score: median (range)", "method": "(§1) Rats were tested before 15 minutes through 240 minutes after intrathecal injection of 5 nmoles (in 10 μl) of 6-[2-(1(2)H-tetrazole-5-yl)ethyl]decahydroisoquinolone-3-carboxylic acid. Sensory function was tested at the hindpaw using withdrawal response to pinprick and withdrawal to pinch with a sharp forceps. Motor performance (ambulation, the placing reflex and Rotarod time), blood pressure and heart rate was also evaluated. Some tests were repeated the next day. Responses after 6-[2-(1(2)H-tetrazole-5-yl)ethyl]decahydroisoquinolone-3-carboxylic acid were compared to injection of 40 μl of bupivacaine, 0.75%. Pinprick responses at the forepaw, chest, abdomen, hindleg and hindpaw were also examined after intrathecal 6-[2-(1(2)H-tetrazole-5-yl)ethyl]decahydroisoquinolone-3-carboxylic acid.\n(§2) Rats were anesthetized with halothane. The lumbar region was shaved, prepared with povidone-iodine, made kyphotic and incised 2 to 3 cm longitudinally in the midline at the level of the iliac crests. The space between the 5th and 6th lumbar vertebrae was punctured with 23G hypodermic needle and a 32G PU catheter (10 cm length, OD 0.0107 inches and ID 0.005 inches) reinforced with a Teflon coated stainless steel stylet (0.003 inches) was advanced through the needle cranially. The needle and the stylet were removed and the catheter withdrawn so that 6.5-7 cm extended outside of the lumbar masculature. The catheter was fixed to the fascia, sutured, inserted into an 8 cm length of PE-10 tubing and secured with glue covered with epoxy. The catheter was tunneled under the skin to the cervical region, flushed with saline and sealed with a cautery pen. The dead space of the catheter was 4.5 to 5 μl. The skin was closed and the rat was allowed to recover from anesthesia for 2-3 days.\nRats were trained over a two-day period. Training began by placing the rat on a Rotarod (Stoelting, Wood Dale, Ill.) that was fixed for three minutes. Then, three series of trials separated by 2-3 hours were performed. During each trial, the rat was placed on the Rotarod accelerating for the first 20 s then at a constant rate of approximately 5 rpm, until a 180 s cut off time. If the rat fell at any time during the initial trial, the trial was repeated. Each rat was allowed three attempts per trial. On the second day, the same procedure was repeated, though acceleration was sustained for 120 s to approximately 12 rpm, with a 150 second cut off time. On day 3, the test day, rats are again placed on the Rotarod and accelerated for 120 seconds to 12 rpm with the cutoff time of 150 seconds. Each rat was permitted 4 attempts at 15 minute intervals. Those successful in 2 of the 4 attempts continued in the protocol, and the average of the 4 attempts was considered the baseline (pre). After a two-hour period, the test drug was administered and rats were examined once on the Rotarod at 30, 60, 90, 120, 180, and 240 minutes. […] Then the placing reflex was tested. Rats were placed on a table and the dorsum of either hindpaw was drawn across the edge of the table; this elicits a lifting of the paw onto the surface of the table (2=normal; 1=delay of 1-2 sec.; 0=more than 2 sec.). This test was performed 3 times for each hindlimb after each ambulation test. The sum of the three trials on both paws were recorded ([…]).\n(§3) The dose and volume of drugs injected intrathecally were determined from the dose required to produce hindlimb sensory and motor loss in preliminary experiments. Bupivacaine HCl (0.75% in 8.25% dextrose for spinal injection) was purchased from Abbott Laboratories (Chicago, Ill.). The intrathecal injection volume was 40 μl. The compound was dissolved in 10% dextrose and water. The injection volume was 1 ul. All intrathecal drug injections were followed by a flush of 10 μl preservative-free saline."}, "rats [2]": {"system": "rats", "test": "Withdrawal response to pinprick at the hindpaw after intrathecal injection", "format": "in vivo", "details": "rat", "method": "as §1, §2\nFirst, the withdrawal response to pinprick was tested on each hindpaw. A 5 mm long tip of a safety pin attached to a von Frey filament (520 mN) was applied once to the plantar aspect of each hindpaw. Either a withdrawal response or a reaction occurred (1=positive response) or no withdrawal (0=no response). The sum of the scores (0, 1 or 2) for each rat was recorded. If no response or reaction was elicited by pinprick, a serrated dissecting forceps was used to pinch the skin of the plantar region for 2-3 sec. Again, withdrawal or reaction was considered a positive response (score=1) and the absence of both a negative test (score=0). […] Because the response to pinch was quite vigorous and rats were subjected to repeated tests in a single day, only rats unresponsive to pinprick were tested for pinch. If pinprick evoked a response, pinch was designated as positive also. The sum of the scores after pinch (0, 1 or 2) was recorded.\nas §3"}, "rats [3]": {"system": "rats", "test": "Segmental pinprick testing at hindpaw, hindleg, abdomen, chest and forepaw after intrathecal injection", "format": "in vivo", "details": "rat", "method": "as §1\nIn a separate group of rats (n=5), the response to pinprick was tested once on the left hindpaw, the left hindleg, the lower abdomen, the chest and the left forepaw in rats injected with intrathecal 6-[2-(1(2)H-tetrazole-5-yl)ethyl]decahydroisoquinolone-3-carboxylic acid. Withdrawal, muscle contraction, or attempted escape reaction to pinprick was considered a positive test whereas their absence was considered a negative response. This test was not blinded."}, "[4]": {"details": "local infiltration of the drug in the incision; previously reported by this inventor; cited from earlier work"}, "rats [5]": {"system": "rats", "test": "Withdrawal response to pinprick after infiltration into the left hind paw", "format": "in vivo", "details": "rat", "method": "Withdrawal response to pinprick were also tested before and after infiltration of (50 nmoles in 100 μl) of 6-[2-(1(2)H-tetrazole-5-yl)ethyl]decahydroisoquinolone-3-carboxylic acid into the left hind paw (n=5). Responses were recorded before injection of 6-[2-(1(2)H-tetrazole-5-yl)ethyl]decahydroisoquinolone-3-carboxylic acid and at 15, 30 and 60 minutes after injection. This test was not blinded."}, "[6]": {"details": "bupivacaine 0.75% 40 μl intrathecal"}}, "note": "“Also recorded” adds a separate entry of the source. Structures can show the parent of a compound that is named as a salt. Marks after values point to notes of the source that are not given here."}
{"compound": "CCCCN1CCCCC1C(=O)Nc1c(C)cccc1C", "note": "(centres unmarked) [Bupivacaine, Bupivacaine HCl]", "values": [{"measurement": "Cumulative Placing Score", "setting": "rats [1]; Bupivacaine 0.75% 40 μl IT, n=8, 15 min", "result": "0 (0-0)*"}, {"measurement": "Cumulative Placing Score", "setting": "rats [1]; Bupivacaine 0.75% 40 μl IT, n=8, 30 min", "result": "6 (0-12)*"}, {"measurement": "Cumulative Placing Score", "setting": "rats [1]; Bupivacaine 0.75% 40 μl IT, n=8, 60 min", "result": "12 (1-12)"}, {"measurement": "Cumulative Placing Score", "setting": "rats [1]; Bupivacaine 0.75% 40 μl IT, n=8, 90 min", "result": "12 (0-12)"}, {"measurement": "Cumulative Placing Score", "setting": "rats [1]; Bupivacaine 0.75% 40 μl IT, n=8, 120 min", "result": "12 (12-12)"}, {"measurement": "Cumulative Placing Score", "setting": "rats [1]; Bupivacaine 0.75% 40 μl IT, n=8, 180 min", "result": "12 (12-12)"}, {"measurement": "Cumulative Placing Score", "setting": "rats [1]; Bupivacaine 0.75% 40 μl IT, n=8, 240 min", "result": "12 (12-12)"}, {"measurement": "Cumulative Placing Score", "setting": "rats [1]; Bupivacaine 0.75% 40 μl IT, n=8, 24 hrs", "result": "12 (12-12)"}, {"measurement": "Cumulative Placing Score", "setting": "rats [1]; Bupivacaine 0.75% 40 μl IT, n=8, Pre (before drug injection)", "result": "12 (12-12)"}, {"measurement": "placing reflex decreased for (P<0.05 vs Pre)", "setting": "rats [1]; [6]", "result": 30, "unit": "min"}, {"measurement": "time at which all rats had recovered withdrawal to pinprick", "setting": "rats [2]; [6]", "result": 60, "unit": "min"}, {"measurement": "withdrawal to pinprick vs Pre", "setting": "rats [2]; bupivacaine 0.75% 40 μl intrathecal, 15 minutes after injection, not eliminated in all tests", "result": "reduced"}]}
{"compound": "O=C(O)C1CC2CC(CCc3nnn[nH]3)CCC2CN1", "note": "(centres unmarked) [LY293558, 6-[2-(1(2)H-tetrazole-5-yl)ethyl]decahydroisoquinolone-3-carboxylic acid]", "values": [{"measurement": "segmental blockade of the response to pinprick", "setting": "rats [3]; 5 nmoles intrathecal", "result": "present"}, {"measurement": "evidence of sensory block of the forelimb", "setting": "rats [3]; intrathecal, n=5, not blinded", "result": "in only one test at 15 minutes"}, {"measurement": "sensation to pinprick blocked below the chest in all rats through", "setting": "rats [3]; intrathecal, n=5, not blinded", "result": 90, "unit": "min"}, {"measurement": "sensation to pinprick blocked in the hindlimb through", "setting": "rats [3]; intrathecal, n=5, not blinded", "result": 120, "unit": "min"}, {"measurement": "effect on pain after incision", "setting": "[4]", "result": "no effect"}, {"measurement": "change in withdrawal response to pinprick from baseline", "setting": "rats [5]; 50 nmoles in 100 μl infiltrated into the hind paw, n=5", "result": "no change; also recorded: did not affect"}, {"measurement": "rats withdrawing to pinprick", "setting": "rats [5]; 50 nmoles in 100 μl into the hind paw, n=5, at 15, 30 and 60 minutes", "result": "All five rats withdrew"}, {"measurement": "placing reflex completely eliminated in all rats through", "setting": "rats [1]; 5 nmoles intrathecal", "result": 90, "unit": "min"}, {"measurement": "placing reflex impaired through (P<0.05 vs Pre)", "setting": "rats [1]; 5 nmoles intrathecal", "result": 3, "unit": "h"}, {"measurement": "Cumulative Placing Score", "setting": "rats [1]; LY293558 5 nmoles IT, n=8, 24 hrs", "result": "12 (12-12)"}, {"measurement": "Cumulative Placing Score", "setting": "rats [1]; LY293558 5 nmoles IT, n=8, Pre (before drug injection)", "result": "12 (12-12)"}, {"measurement": "greater inhibition of pinprick than bupivacaine (P<0.05) through", "setting": "rats [2]; 5 nmoles intrathecal vs bupivacaine", "result": 3, "unit": "h"}, {"measurement": "rats failed to respond to pin prick through (P<0.05 vs Pre)", "setting": "rats [2]; 5 nmoles intrathecal, from 15 minutes", "result": 2, "unit": "h"}, {"measurement": "recovery of pinprick response the next day", "setting": "rats [2]; 5 nmoles intrathecal, next day", "result": "recovered fully"}]}
